Tested on: T. b. brucei Lister427 bloodstream form parasites
Assay: T. b. brucei growth inhibition assay (CellTiter-Glo, 48 hours)
Type: cell-based
Settings: Trypanosoma brucei
Description: Bloodstream form of T. b. brucei Lister427 strain was obtained from the Genomics Institute of the Novartis Research Foundation. This strain was used for carrying out growth inhibition and kill kinetics assays. T. b. gambiense STIB930 and T. b. rhodesiense STIB900 were obtained from Swiss TPH, were used for carrying out the growth inhibition assays.
Bloodstream form T. b. brucei Lister 427 parasites were continuously passaged in HMI-9 medium formulated from IMDM medium (Invitrogen), 10% heat-inactivated fetal bovine serum (FBS), 10% Serum Plus medium supplement (SAFC Biosciences), 1 mM hypoxanthine (Sigma-Aldrich), 50 μM bathocuproine disulfonic acid (Sigma-Aldrich), 1.5 mM cysteine (Sigma-Aldrich), 1 mM pyruvic acid (Sigma-Aldrich), 39 μg/mL thymidine (Sigma-Aldrich), and 14 μL/L beta-mercapthoethanol (Sigma-Aldrich); all concentrations of added components refer to that in complete HMI-9 medium. The parasites were cultured in 10 mL of HMI-9 medium in T75 CELL-STAR tissue culture flasks at 37° C./5% CO2.
To determine compound growth inhibitory potency on T. b. brucei Lister427 bloodstream form parasites, 200 nL of 10-point, 3 fold serially diluted compounds in DMSO were transferred to the wells of white, solid bottom 384-well plates (Greiner Bio-One) by either Echo 555 acoustic liquid handling system or Mosquito. Then, 1×10^4 of T. b. brucei parasites in 40 μL of HMI-9 medium were added to each well, and the plates were incubated for 48 hours at 37° C. in 5% CO2 incubators. Parasite numbers in individual plate wells were determined through quantification of intracellular ATP amount. The CellTiter-Glo luminescent cell viability reagent (Promega) was added to plate wells, and ATP-dependent luminescence signal was measured on Tecan M1000 plate Reader after 30 min incubation. Luminescence values in wells with compounds were divided by the average luminescence value of the plate DMSO controls, and used for calculation of compound IC50 values.

Compound | IC50 [µM]
N#Cc1ncn(CC(=O)N2Cc3ccc(-c4cc(F)ccc4C(F)(F)F)cc3C2)n1 [Example 28, 1-(2-(5-(5-fluoro-2-(trifluoromethyl)phenyl)isoindolin-2-yl)-2-oxoethyl)-1H-1,2,4-triazole-3-carbonitrile] | < 0.1
N#Cc1ncn(CC(=O)N2Cc3ccc(-c4cccnc4Cl)cc3C2)n1 [Example 47, 1-(2-(5-(2-chloropyridin-3-yl)isoindolin-2-yl)-2-oxoethyl)-1H-1,2,4-triazole-3-carbonitrile] | 0.1 to 1
N#Cc1ncn(CC(=O)N2Cc3ccc(-c4ccncc4Cl)cc3C2)n1 [Example 49, 1-(2-(5-(3-chloropyridin-4-yl)isoindolin-2-yl)-2-oxoethyl)-1H-1,2,4-triazole-3-carbonitrile] | 0.1 to 1
COc1ccc(-c2ccc3c(c2)CN(C(=O)Cn2cnc(C#N)n2)C3)c(OC)c1 [Example 53, 1-(2-(5-(2,4-dimethoxyphenyl)isoindolin-2-yl)-2-oxoethyl)-1H-1,2,4-triazole-3-carbonitrile] | ≥ 1
N#Cc1cccc(-c2ccc3c(c2)CN(C(=O)Cn2cnc(C#N)n2)C3)c1 [Example 54, 1-(2-(5-(3-cyanophenyl)isoindolin-2-yl)-2-oxoethyl)-1H-1,2,4-triazole-3-carbonitrile] | ≥ 1
N#Cc1ncn(CC(=O)N2Cc3ccc(-c4ccc(F)cc4F)cc3C2)n1 [Example 55, 1-(2-(5-(2,4-difluorophenyl)isoindolin-2-yl)-2-oxoethyl)-1H-1,2,4-triazole-3-carbonitrile] | ≥ 1
N#Cc1ncn(CC(=O)N2Cc3ccc(-c4ccc(F)nc4)cc3C2)n1 [Example 56, 1-(2-(5-(6-fluoropyridin-3-yl)isoindolin-2-yl)-2-oxoethyl)-1H-1,2,4-triazole-3-carbonitrile] | ≥ 1
COc1ccc(F)cc1-c1ccc2c(c1)CN(C(=O)Cn1cnc(C#N)n1)C2 [Example 57, 1-(2-(5-(5-fluoro-2-methoxyphenyl)isoindolin-2-yl)-2-oxoethyl)-1H-1,2,4-triazole-3-carbonitrile] | ≥ 1
N#Cc1ncn(CC(=O)N2Cc3ccc(-c4ccc(Cl)cc4F)cc3C2)n1 [Example 58, 1-(2-(5-(4-chloro-2-fluorophenyl)isoindolin-2-yl)-2-oxoethyl)-1H-1,2,4-triazole-3-carbonitrile] | ≥ 1
COc1ccc(OC)c(-c2ccc3c(c2)CN(C(=O)Cn2cnc(C#N)n2)C3)c1 [Example 59, 1-(2-(5-(2,5-dimethoxyphenyl)isoindolin-2-yl)-2-oxoethyl)-1H-1,2,4-triazole-3-carbonitrile] | ≥ 1
N#Cc1ncn(CC(=O)N2Cc3ccc(-c4ccncc4F)cc3C2)n1 [Example 60, 1-(2-(5-(3-fluoropyridin-4-yl)isoindolin-2-yl)-2-oxoethyl)-1H-1,2,4-triazole-3-carbonitrile] | ≥ 1
COc1ccc(-c2ccc3c(c2)CN(C(=O)Cn2cnc(C#N)n2)C3)cc1 [Example 61, 1-(2-(5-(4-methoxyphenyl)isoindolin-2-yl)-2-oxoethyl)-1H-1,2,4-triazole-3-carbonitrile] | ≥ 1
COc1ccc(OC(F)(F)F)cc1-c1ccc2c(c1)CN(C(=O)Cn1cnc(C#N)n1)C2 [Example 62, 1-(2-(5-(2-methoxy-5-(trifluoromethoxy)phenyl)isoindolin-2-yl)-2-oxoethyl)-1H-1,2,4-triazole-3-carbonitrile] | ≥ 1
N#Cc1ncn(CC(=O)N2Cc3ccc(-c4ccnc(F)c4)cc3C2)n1 [Example 63, 1-(2-(5-(2-fluoropyridin-4-yl)isoindolin-2-yl)-2-oxoethyl)-1H-1,2,4-triazole-3-carbonitrile] | ≥ 1
C#Cc1ccc(-c2ccc3c(c2)CN(C(=O)Cn2cnc(C#N)n2)C3)cc1 [Example 64, 1-(2-(5-(4-ethynylphenyl)isoindolin-2-yl)-2-oxoethyl)-1H-1,2,4-triazole-3-carbonitrile] | ≥ 1
N#Cc1ncn(CC(=O)N2Cc3ccc(-c4ccccc4F)cc3C2)n1 [Example 65, 1-(2-(5-(2-fluorophenyl)isoindolin-2-yl)-2-oxoethyl)-1H-1,2,4-triazole-3-carbonitrile] | ≥ 1
N#Cc1ncn(CC(=O)N2Cc3ccc(-c4ccncc4)cc3C2)n1 [Example 66, 1-(2-oxo-2-(5-(pyridin-4-yl)isoindolin-2-yl)ethyl)-1H-1,2,4-triazole-3-carbonitrile] | ≥ 1

Compound | IC50 [µM]
N#Cc1ncn(CC(=O)N2Cc3ccc(-c4ccc(Br)cc4)cc3C2)n1 [Example 67, 1-(2-(5-(4-bromophenyl)isoindolin-2-yl)-2-oxoethyl)-1H-1,2,4-triazole-3-carbonitrile] | ≥ 1
N#Cc1ncn(CC(=O)N2Cc3ccc(-c4ccc(F)c(Cl)c4)cc3C2)n1 [Example 68, 1-(2-(5-(3-chloro-4-fluorophenyl)isoindolin-2-yl)-2-oxoethyl)-1H-1,2,4-triazole-3-carbonitrile] | ≥ 1
N#Cc1ncn(CC(=O)N2Cc3ccc(-c4ccccc4-c4ccccc4)cc3C2)n1 [Example 69, 1-(2-(5-([1,1′-biphenyl]-2-yl)isoindolin-2-yl)-2-oxoethyl)-1H-1,2,4-triazole-3-carbonitrile] | ≥ 1
N#Cc1ncn(CC(=O)N2Cc3ccc(-c4ccc(Cl)c(F)c4)cc3C2)n1 [Example 70, 1-(2-(5-(4-chloro-3-fluorophenyl)isoindolin-2-yl)-2-oxoethyl)-1H-1,2,4-triazole-3-carbonitrile] | ≥ 1
N#Cc1ncn(CC(=O)N2Cc3ccc(-c4ccc(Cl)cc4)cc3C2)n1 [Example 71, 1-(2-(5-(4-chlorophenyl)isoindolin-2-yl)-2-oxoethyl)-1H-1,2,4-triazole-3-carbonitrile] | ≥ 1
N#Cc1ncn(CC(=O)N2Cc3ccc(-c4ccc(F)c(F)c4)cc3C2)n1 [Example 72, 1-(2-(5-(3,4-difluorophenyl)isoindolin-2-yl)-2-oxoethyl)-1H-1,2,4-triazole-3-carbonitrile] | ≥ 1
N#Cc1ncn(CC(=O)N2Cc3ccc(-c4cccnc4F)cc3C2)n1 [Example 73, 1-(2-(5-(2-fluoropyridin-3-yl)isoindolin-2-yl)-2-oxoethyl)-1H-1,2,4-triazole-3-carbonitrile] | ≥ 1
N#Cc1ncn(CC(=O)N2Cc3ccc(-c4cc(F)cc(F)c4)cc3C2)n1 [Example 74, 1-(2-(5-(3,5-difluorophenyl)isoindolin-2-yl)-2-oxoethyl)-1H-1,2,4-triazole-3-carbonitrile] | ≥ 1
COc1ccccc1-c1ccc2c(c1)CN(C(=O)Cn1cnc(C#N)n1)C2 [Example 75, 1-(2-(5-(2-methoxyphenyl)isoindolin-2-yl)-2-oxoethyl)-1H-1,2,4-triazole-3-carbonitrile] | ≥ 1
N#Cc1ncn(CC(=O)N2Cc3ccc(-c4ccc(C(F)(F)F)cc4)cc3C2)n1 [Example 76, 1-(2-oxo-2-(5-(4-(trifluoromethyl)phenyl)isoindolin-2-yl)ethyl)-1H-1,2,4-triazole-3-carbonitrile] | ≥ 1
COc1cccc(-c2ccc3c(c2)CN(C(=O)Cn2cnc(C#N)n2)C3)c1 [Example 77, 1-(2-(5-(3-methoxyphenyl)isoindolin-2-yl)-2-oxoethyl)-1H-1,2,4-triazole-3-carbonitrile] | ≥ 1
Cc1cc(-c2ccc3c(c2)CN(C(=O)Cn2cnc(C#N)n2)C3)ccc1C(F)(F)F [Example 78, 1-(2-(5-(3-methyl-4-(trifluoromethyl)phenyl)isoindolin-2-yl)-2-oxoethyl)-1H-1,2,4-triazole-3-carbonitrile] | ≥ 1
N#Cc1ncn(CC(=O)N2Cc3ccc(-c4ccccc4)cc3C2)n1 [Example 79, 1-(2-oxo-2-(5-phenylisoindolin-2-yl)ethyl)-1H-1,2,4-triazole-3-carbonitrile] | ≥ 1
N#Cc1ncn(CC(=O)N2Cc3ccc(-c4cccc(Cl)c4)cc3C2)n1 [Example 80, 1-(2-(5-(3-chlorophenyl)isoindolin-2-yl)-2-oxoethyl)-1H-1,2,4-triazole-3-carbonitrile] | ≥ 1
N#Cc1ncn(CC(=O)N2Cc3ccc(-c4cccc(F)c4)cc3C2)n1 [Example 81, 1-(2-(5-(3-fluorophenyl)isoindolin-2-yl)-2-oxoethyl)-1H-1,2,4-triazole-3-carbonitrile] | ≥ 1
N#Cc1ncn(CC(=O)N2Cc3ccc(-c4ccc(F)cc4)cc3C2)n1 [Example 82, 1-(2-(5-(4-fluorophenyl)isoindolin-2-yl)-2-oxoethyl)-1H-1,2,4-triazole-3-carbonitrile] | ≥ 1
N#Cc1ncn(CC(=O)N2Cc3ccc(-c4ccc(OC(F)(F)F)cc4)cc3C2)n1 [Example 83, 1-(2-oxo-2-(5-(4-(trifluoromethoxy)phenyl)isoindolin-2-yl)ethyl)-1H-1,2,4-triazole-3-carbonitrile] | ≥ 1

— patent publication US20220106296A1, “CYANOTRIAZOLE COMPOUNDS AND USES THEREOF” (Novartis AG, priority 2018, published 2022)
